In patent US11013780B2, “Methods of treating female infertility” (Myovant Sciences GmbH, priority 2016, dated 2021):
Where “and” joins values, the source holds several entries; their conditions need not be identical. Identical values can stand only once. Like-named read-outs stand apart in the source and are kept apart here. Where a SMILES comes first, the peptide text is derived from it. [ ]: non-standard residue; d: D form. Arg(Me) = CNC(=N)NCCC[C@H](N)C(=O)O; Hyp = O=C(O)[C@@H]1C[C@@H](O)CN1; azaGly = NNC(=O)O

Columns and labels:
[1] = dog, in vivo; cited from earlier work
in vitro = in vitro ADME, rats, dogs, monkeys, humans; details: rat, dog, monkey, human, plasma
Experimental: (§1) The in vitro distribution ratios of [^14C]API-MA into the blood cells at the concentrations of 0.01, 0.1, 1, and 10 μg/mL API-FB (free form) were 7.8%, 8.0%, 7.1%, and 4.8% for rats, 2.4%, 2.0%, 1.6%, and 1.2% for dogs, and 2.0%, 0.0%, 0.0%, and 0.5% for humans, respectively. […] The in vitro plasma protein binding ratios of [^14C]API-FB in rats, dogs, monkeys, and humans were determined by the ultracentrifugation method. In addition, the protein binding to human serum albumin (HSA), α1-acid glycoprotein (AGP), and HSA/AGP was investigated. […] In rats and dogs, a slight decrease in the binding ratio at the concentration range between 0.1 and 1.0 μg/mL API-FB was observed. In monkeys and humans, the binding was independent of the drug concentrations from 0.01 to 10 μg/mL API-FB.

serum LH and FSH [2] = experiment: Multiple-dose pharmacodynamics, continuous SC infusion, European men; assay type: in vivo, human
Experimental: This study was a phase 1 study of multiple-day, continuous SC infusions of API-MA to 30 healthy European men over age 50. […] Five to six men received active API-MA, and 1 to 2 men received placebo per dose level cohort. The pharmacodynamics of the following hormones were assessed: LH and FSH.
The SC infusion was started 24 hours after the bolus injection; all specimens collected after the 24-hour time point were collected during the SC infusion. Blood specimens were also collected on days 16, 17, 21, 28 and 44 to monitor the return of the hormone concentrations to baseline values.

[3] = In vitro distribution into blood cells, dogs; assay type: in vitro ADME
Experimental: as §1

serum LH and FSH [4] = experiment: Single dose pharmacodynamics (LH, FSH), European men; assay type: in vivo, human
Experimental: Another study was a single dose, phase 1 clinical study of API-MA in healthy men age 50 to 76 years. Subjects enrolled in the first […] cohorts received 0.001, 0.003, 0.01, 0.03, 0.1 or 0.3 mg of API-MA or placebo by single SC bolus. Subjects enrolled in the seventh, eighth, and ninth cohorts received 1, 3, or 6 mg of API-MA or placebo by single 2-hour SC infusion. The pharmacodynamics of each of the following hormones was assessed: LH and FSH. PRL, TSH, cortisol, sex hormone binding globulin (SHBG), and plasma ACTH (also known as corticotropin) concentrations were measured on the day prior to dosing and on day 4, the Final Visit. To measure serum concentrations of LH and FSH in the bolus cohorts, blood specimens were collected at the following nominal times: the day prior to dosing, predose, and 0.083, 0.25, 0.75, 1, 2, 3, 4, 6, 8, 12, 16, 24, 36, 48 and 72 hours postdose. In the infusion cohorts, blood specimens were collected at the following nominal times: the day prior to dosing, predose or start of the infusion, and 0.5, 1, 1.5, 2 (end of infusion), 2.25, 2.5, 3, 4, 6, 8, 10, 14, 18, 26, 50 and 74 hours after the start of infusion. Serum LH concentrations increased after a single SC bolus of API-MA, as well as after a single 2-hour SC infusion of API-MA. The concentrations peaked between 6 and 12 hours and returned to baseline by 72 hours. The magnitudes and durations of the LH concentration increases were similar across the dose range, 0.001 to 6 mg.

[5] = In vitro distribution into blood cells, humans; assay type: in vitro ADME
Experimental: as §1

rat KISS1R = molecular target: T1, rat KISS1R (Rattus norvegicus, UniProt Q924U1); experiment: Intracellular Ca2+ mobilization (fluorometric imaging plate reader), rat KISS1R; assay type: cell-based
T1 construct: expressed in transfected cells; host or cells: Chinese hamster ovary dihydrofolate reductase negative cells
Experimental: The effects of API-MA on intracellular Ca^2+ mobilization in KISS1R-expressing recombinant cells were evaluated by performing the fluorometric imaging plate reader assay.

CYP2C9 = CYP2C9 (Homo sapiens, UniProt P11712); experiment: Inhibition of recombinant CYP2C9; assay type: in vitro ADME
serum LH and PSA = experiment: 1-month depot pharmacodynamics, prostate cancer patients; assay type: in vivo, human
Experimental: Nine patients with prostate cancer were enrolled in another study, three in each dose group (6, 12, and 24 mg). Patients received API-MA as a single 1-month depot injection that was intended to initiate both a high-burst release of API-MA and rapid stimulation of hypothalamic-pituitary-gonadal axis. Overall, 4 of 9 patients received concomitant GnRH therapy. Assessments of pharmacodynamics included LH concentrations and serum PSA concentrations. Results were grouped based on patients who were or were not receiving concomitant GnRH therapy.

[6] = In vitro distribution into blood cells, rats; assay type: in vitro ADME
Experimental: as §1

[7] = PK across species (rats, dogs, monkeys), SC bioavailability; assay type: in vivo; details: rat, dog, monkey, plasma, read-out: Bioavailability after SC administration
Source text: The PK of API-MA was studied in rats, dogs, and monkeys.

serum LH, FSH and PSA = experiment: Multiple-dose pharmacodynamics, Japanese prostate cancer patients; assay type: in vivo, human
Experimental: The study was a phase 1 study in hormone naïve Japanese prostate cancer patients. Six patients received API-MA doses of 0.5 mg (3 patients) and 1.0 mg (3 patients) administered via 2-hour SC infusion once daily for 14 days. Summary statistics of serum concentrations of LH, FSH, GH, PRL, and TSH, as well as plasma concentration of ACTH and serum concentration of prostate-specific antigen (PSA), at baseline and at each evaluation point, changes from baseline were calculated for each dose, and the data (individual values and mean±standard deviation) were plotted against time for each dose. […] Changes in serum LH were similar between 0.5 and 1.0 mg of API-MA (data for API-MA 1.0 mg/day dose group not shown).

[8] = system: 127 enzyme and radio ligand binding assays; experiment: Series of 127 enzyme and radio ligand binding assays; details: 10 μmol/L
[9] = Japanese prostate cancer patients, 0.5 mg/day 2-hour SC infusion for 14 days

T1 sequence (Q924U1 whole entry): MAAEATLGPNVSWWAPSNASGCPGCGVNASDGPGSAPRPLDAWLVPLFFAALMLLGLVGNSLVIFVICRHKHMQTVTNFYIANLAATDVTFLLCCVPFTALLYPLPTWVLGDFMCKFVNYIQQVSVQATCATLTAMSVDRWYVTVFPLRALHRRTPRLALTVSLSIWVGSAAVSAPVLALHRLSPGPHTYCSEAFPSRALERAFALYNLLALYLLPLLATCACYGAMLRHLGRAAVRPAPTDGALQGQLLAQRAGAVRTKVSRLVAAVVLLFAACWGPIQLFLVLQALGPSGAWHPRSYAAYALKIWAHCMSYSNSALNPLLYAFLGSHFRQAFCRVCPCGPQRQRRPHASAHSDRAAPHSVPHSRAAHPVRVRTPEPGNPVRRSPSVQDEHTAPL
Chain of CYP2C9 (P11712 whole entry): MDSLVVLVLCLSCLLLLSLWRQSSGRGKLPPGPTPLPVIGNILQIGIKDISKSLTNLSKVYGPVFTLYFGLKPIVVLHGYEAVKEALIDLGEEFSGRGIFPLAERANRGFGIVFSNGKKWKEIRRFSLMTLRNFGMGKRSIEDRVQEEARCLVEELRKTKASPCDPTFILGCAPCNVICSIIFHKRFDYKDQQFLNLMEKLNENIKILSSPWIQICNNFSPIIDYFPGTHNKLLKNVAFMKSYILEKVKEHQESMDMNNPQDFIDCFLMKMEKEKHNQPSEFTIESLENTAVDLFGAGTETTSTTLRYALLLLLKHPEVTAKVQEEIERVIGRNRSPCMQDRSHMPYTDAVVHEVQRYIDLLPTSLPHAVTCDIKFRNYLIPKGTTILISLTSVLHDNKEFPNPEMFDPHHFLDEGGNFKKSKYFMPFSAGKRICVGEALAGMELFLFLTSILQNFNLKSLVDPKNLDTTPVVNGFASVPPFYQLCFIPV

## CNC(=N)NCCC[C@H](NC(=O)[C@H](CC(C)C)NC(=O)NNC(=O)[C@H](Cc1ccccc1)NC(=O)[C@@H](NC(=O)[C@H](CC(N)=O)NC(=O)[C@@H]1C[C@@H](O)CN1C(=O)[C@@H](Cc1ccc(O)cc1)NC(C)=O)[C@@H](C)O)C(=O)N[C@@H](Cc1c[nH]c2ccccc12)C(N)=O [Compound 1, 2-(N-Acetyl-D-tyrosyl-trans-4-hydroxy-L-prolyl-L-asparaginyl-L-threonyl-L-phenylalanyl)-hydrazinocarbonyl-L-leucyl-Nω-methyl-L-arginyl-L-tryptophanamide] (Ac-[dY][Hyp]NTF[azaGly]L[Arg(Me)]W-NH2)
[1]
  bioavailability: 92.4%
In vitro
  fraction unbound: 0.267 to 0.447

## CC(=O)O.CNC(=N)NCCC[C@H](NC(=O)[C@H](CC(C)C)NC(=O)NNC(=O)[C@H](Cc1ccccc1)NC(=O)[C@@H](NC(=O)[C@H](CC(N)=O)NC(=O)[C@@H]1C[C@@H](O)CN1C(=O)[C@@H](Cc1ccc(O)cc1)NC(C)=O)[C@@H](C)O)C(=O)N[C@@H](Cc1c[nH]c2ccccc12)C(N)=O [API-MA, 2-(N-Acetyl-D-tyrosyl-trans-4-hydroxy-L-prolyl-Lasparaginyl-L-threonyl-L-phenylalanyl)-hydrazinocarbonyl-L-leucyl-Nω-methyl-L-arginyl-L-tryptophanamide monoacetate] (Ac-[dY][Hyp]NTF[azaGly]L[Arg(Me)]W-NH2)
Serum LH and FSH [2]; 0.1 mg SC bolus on day 1
  Time of gonadotropin peak after bolus: 24 h
Serum LH and FSH [2]; 13-day SC infusion 0.01 to 1.0 mg/day
  Serum LH and FSH concentrations during prolonged infusion: declined to values below baseline
Serum LH and FSH [2]; after 13-day SC infusion
  Time of LH and FSH return to baseline values postdose: ≤ 7 days
[3]; 0.01 μg/mL API-FB
  Distribution ratio into blood cells: 2.4%
[3]; 0.1 μg/mL API-FB
  Distribution ratio into blood cells: 2.0%
[3]; 1 μg/mL API-FB
  Distribution ratio into blood cells: 1.6%
[3]; 10 μg/mL API-FB
  Distribution ratio into blood cells: 1.2%
Serum LH and FSH [4]; any dose level
  Changes in serum SHBG, prolactin, TSH, corticotropin, cortisol: no relevant changes
Serum LH and FSH [4]; single dose 0.001 to 6 mg
  Time of FSH return / decline towards baseline: ≤ 72 h
  Time of LH return to baseline: ≤ 72 h
[5]; 0.01 μg/mL API-FB
  Distribution ratio into blood cells: 2.0%
[5]; 0.1 μg/mL API-FB
  Distribution ratio into blood cells: 0.0%
[5]; 1 μg/mL API-FB
  Distribution ratio into blood cells: 0.0%
[5]; 10 μg/mL API-FB
  Distribution ratio into blood cells: 0.5%
Rat KISS1R
  EC50: 0.632 nM
Rat KISS1R; rat KISS1R
  Ratio of EC50 of API-MA to kisspeptin (45-54): 2.0
CYP2C9
  IC50: > 7.78 nM
Serum LH and PSA; month 1, day 29, 6 mg dose group
  Greatest percent decrease from baseline in PSA, individual patients: 8% and 19%
Serum LH and PSA; month 1, day 29, 12 mg dose group
  Greatest percent decrease from baseline in PSA, individual patients: 25% and 62%
Serum LH and PSA; month 1, day 29, 24 mg dose group
  Greatest percent decrease from baseline in PSA, individual patients: 88% and 74% and 79%
Serum LH and PSA; month 2 day 29, a patient in the 24 mg dose group
  Greatest reduction in PSA: 91%
[6]; 0.01 μg/mL API-FB
  Distribution ratio into blood cells: 7.8%
[6]; 0.1 μg/mL API-FB
  Distribution ratio into blood cells: 8.0%
[6]; 1 μg/mL API-FB
  Distribution ratio into blood cells: 7.1%
[6]; 10 μg/mL API-FB
  Distribution ratio into blood cells: 4.8%
[7]
  bioavailability: > 55%
Serum LH, FSH and PSA; [9]
  Serum FSH levels: completely suppressed from Day 6 to Day 16
  Serum LH levels: completely suppressed from Day 6 to Day 16
Serum LH, FSH and PSA; patients receiving 0.5 mg
  Serum PSA decrease compared to baseline: approximately 40%
[8]
  Inhibitory effect in enzyme and receptor binding assays: did not show any significant inhibitory effect
